What was measured:
Assay in all cases: relative viability (nuclei count vs DMSO), 5 days (fraction); higher = more cells survive
Etoposide + Foretinib = compound: COc1cc([C@@H]2c3cc4c(cc3[C@@H](O[C@@H]3O[C@@H]5CO[C@@H](C)O[C@H]5[C@H](O)[C@H]3O)[C@H]3COC(=O)[C@H]23)OCO4)cc(OC)c1O [Etoposide] + COc1cc2c(Oc3ccc(NC(=O)C4(C(=O)Nc5ccc(F)cc5)CC4)cc3F)ccnc2cc1OCCCN1CCOCC1 [Foretinib] (partner 0.25 µM)
In short: (§1)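 Lung cancer cell lines were pin-tool dosed in 1536-well plates on the day after seeding, with either a lone drug or a fixed anchor-drug dose plus five library-drug doses (not always all listed) in √10 steps. Nuclei were counted on 4× images after 5 days. Relative viability is the ratio of treated-well to vehicle-well nuclei counts, with each value a median of duplicate plates.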

Bleomycin + Olaparib = compound: CC1=C(N=C(N=C1N)[C@H](CC(=O)N)NC[C@@H](C(=O)N)N)C(=O)N[C@@H]([C@H](C2=CN=CN2)OC3C(C(C(C(O3)CO)O)O)OC4C(C(C(C(O4)CO)O)OC(=O)N)O)C(=O)N[C@H](C)[C@H]([C@H](C)C(=O)N[C@@H]([C@@H](C)O)C(=O)NCCC5=NC(=CS5)C6=NC(=CS6)C(=O)NCCC[S+](C)C)O [Bleomycin] + O=C(c1cc(Cc2n[nH]c(=O)c3ccccc23)ccc1F)N1CCN(C(=O)C2CC2)CC1 [Olaparib] (partner 8 µM); settings: main component drawn
In short: as §1

Bleomycin + AZD7762 = compound: CC1=C(N=C(N=C1N)[C@H](CC(=O)N)NC[C@@H](C(=O)N)N)C(=O)N[C@@H]([C@H](C2=CN=CN2)OC3C(C(C(C(O3)CO)O)O)OC4C(C(C(C(O4)CO)O)OC(=O)N)O)C(=O)N[C@H](C)[C@H]([C@H](C)C(=O)N[C@@H]([C@@H](C)O)C(=O)NCCC5=NC(=CS5)C6=NC(=CS6)C(=O)NCCC[S+](C)C)O [Bleomycin] + NC(=O)Nc1cc(-c2cccc(F)c2)sc1C(=O)N[C@H]1CCCNC1 [AZD7762] (partner 0.2 µM); settings: main component drawn
In short: as §1

Etoposide + Crizotinib = compound: COc1cc([C@@H]2c3cc4c(cc3[C@@H](O[C@@H]3O[C@@H]5CO[C@@H](C)O[C@H]5[C@H](O)[C@H]3O)[C@H]3COC(=O)[C@H]23)OCO4)cc(OC)c1O [Etoposide] + C[C@@H](Oc1cc(-c2cnn(C3CCNCC3)c2)cnc1N)c1c(Cl)ccc(F)c1Cl [Crizotinib] (partner 1 µM)
In short: as §1

Cell Line	relative viability (Etoposide + Foretinib; first compound 0.01 µM)	relative viability (Etoposide + Foretinib; first compound 0.03162 µM)	relative viability (Etoposide + Foretinib; first compound 0.1 µM)	relative viability (Etoposide + Foretinib; first compound 0.3162 µM)	relative viability (Etoposide + Foretinib; first compound 1 µM)	relative viability (Bleomycin + Olaparib; first compound 0.01 µM)	relative viability (Bleomycin + Olaparib; first compound 0.03162 µM)	relative viability (Bleomycin + Olaparib; first compound 0.1 µM)	relative viability (Bleomycin + Olaparib; first compound 0.3162 µM)	relative viability (Bleomycin + Olaparib; first compound 1 µM)	relative viability (Bleomycin + AZD7762; first compound 0.01 µM)	relative viability (Bleomycin + AZD7762; first compound 0.03162 µM)	relative viability (Bleomycin + AZD7762; first compound 0.1 µM)	relative viability (Bleomycin + AZD7762; first compound 0.3162 µM)	relative viability (Bleomycin + AZD7762; first compound 1 µM)	relative viability (Etoposide + Crizotinib; first compound 0.01 µM)	relative viability (Etoposide + Crizotinib; first compound 0.03162 µM)	relative viability (Etoposide + Crizotinib; first compound 0.1 µM)	relative viability (Etoposide + Crizotinib; first compound 0.3162 µM)	relative viability (Etoposide + Crizotinib; first compound 1 µM)
HCC-15	1.07	1.02	1.02	0.314	0.157	0.629	0.689	0.508	0.224	0.238	1.07	1.03	1.13	0.579	0.599	0.799	0.821	0.856	0.342	0.125
HCC-78	0.476	0.532	0.438	0.404	0.252	0.592	0.617	0.652	0.488	0.487	0.607	0.683	0.599	0.528	0.493	0.31	0.334	0.241	0.227	0.181
HCC-366	0.961	0.848	0.442	0.12	0.0524	0.157	0.134	0.126	0.0346	0.0334	0.305	0.231	0.156	0.065	0.0338	0.43	0.434	0.217	0.0627	0.0226
HCC-827	0.996	1.01	0.915	0.284	0.177	0.522	–	0.446	0.209	0.161	0.195	–	0.199	0.148	0.167	0.879	0.941	0.662	0.394	0.228
HOP-62	1.06	1.05	0.967	0.628	0.418	0.175	0.137	0.0997	0.0722	0.0872	0.325	0.292	0.209	0.16	0.0932	0.96	0.998	0.799	0.681	0.157
LC-2-ad	0.898	0.896	0.696	0.424	0.308	0.574	0.431	0.287	0.235	0.219	0.761	0.775	0.644	0.316	0.26	0.568	0.45	0.434	0.332	0.203
LCLC-97TM1	0.87	0.988	0.732	0.341	0.173	0.211	0.258	0.148	0.0871	0.0615	0.135	0.141	0.102	0.0831	0.0741	–	0.382	0.241	0.155	0.111
LCLC-103H	0.592	0.597	0.77	0.636	0.502	0.717	0.735	0.724	0.56	0.384	0.7	0.8	0.792	0.666	0.418	1.09	1.02	0.984	1.06	0.988
LK-2	0.879	1.17	0.933	0.912	0.401	0.369	0.451	0.279	0.163	0.165	0.26	0.271	0.218	0.134	0.116	0.264	0.265	0.263	0.219	0.23
LOU-NH91	0.919	0.949	0.745	0.795	0.406	0.604	0.521	0.432	0.342	0.28	0.715	0.667	0.576	0.421	0.369	0.74	0.767	0.701	0.632	0.438
LU99A	0.911	0.966	0.43	0.466	0.287	0.209	0.24	0.202	0.141	0.118	0.298	0.261	0.203	0.157	0.121	0.577	0.512	0.388	0.288	0.189
LXF-289	0.973	0.971	1.02	0.611	0.327	0.887	0.831	0.864	0.168	0.127	1.01	1.07	0.928	0.419	0.143	0.851	0.824	0.836	0.511	0.251
NCI-H23	0.924	0.941	0.678	0.4	0.242	0.205	0.153	0.171	0.107	0.107	0.259	0.241	0.159	0.121	0.119	0.365	0.471	0.402	0.297	0.169
NCI-H322M	0.813	1	0.831	0.864	0.483	0.612	0.823	0.675	0.545	0.447	0.529	0.523	0.564	0.436	0.416	0.775	0.889	0.905	0.871	0.533
NCI-H358	0.705	0.756	0.447	0.184	0.134	0.475	0.713	0.657	0.294	0.227	0.417	0.579	0.551	0.426	0.446	0.689	0.441	0.518	0.261	0.139
NCI-H441	0.923	0.838	0.673	0.363	0.286	0.539	0.505	0.399	0.338	0.226	1.05	0.977	1.17	0.689	0.775	0.597	0.603	0.39	0.197	0.133
NCI-H460	0.871	0.907	0.809	0.142	0.0668	0.212	0.159	0.12	0.0368	0.073	0.409	0.475	0.269	0.134	0.0663	0.708	0.498	0.476	0.0396	0.0142
NCI-H596	0.748	0.833	1.04	0.799	0.596	0.599	0.515	0.515	0.371	0.438	1.06	1.03	0.891	0.349	0.398	1.02	0.96	–	0.808	0.681
NCI-H647	1.02	1.25	1.21	0.654	0.271	0.161	0.148	0.195	0.0429	0.0447	0.166	0.284	0.112	0.0842	0.0575	1.05	1.01	0.858	0.298	0.151
NCI-H650	0.961	0.913	0.682	0.606	0.288	0.333	0.463	0.336	0.264	0.175	0.949	1.07	0.723	0.515	0.36	0.568	0.831	0.416	0.339	0.174
NCI-H727	0.988	0.912	–	0.732	0.606	0.732	0.634	0.612	0.592	0.624	0.683	0.574	0.451	0.33	0.463	0.771	0.683	0.867	0.766	0.585
NCI-H838	0.981	1.03	1.01	0.841	0.35	0.432	0.269	0.199	0.138	0.148	0.701	0.68	0.661	0.594	0.649	0.85	0.846	0.973	0.522	0.345
NCI-H1355	0.812	0.998	0.828	0.507	0.285	0.669	0.71	0.676	0.341	0.228	0.783	0.9	0.783	0.63	0.323	0.918	1.15	0.5	0.674	0.306
NCI-H1437	1.21	1.2	1.27	0.943	0.44	0.571	0.593	0.499	0.397	0.378	1.04	1.12	1.14	0.765	0.746	1.04	0.918	0.926	0.403	0.361
NCI-H1651	0.781	0.659	0.784	0.351	0.251	0.177	0.153	0.172	0.116	0.122	0.484	0.46	0.323	0.266	0.219	0.815	0.827	0.629	0.301	0.202
NCI-H1666	0.962	0.919	0.695	0.42	0.461	0.65	0.692	0.644	0.54	0.599	0.972	0.695	0.57	0.512	0.486	0.906	0.904	0.68	0.36	0.301
NCI-H1703	0.39	0.34	0.349	0.268	0.343	0.55	0.508	0.289	0.309	0.166	0.131	0.139	0.128	0.122	0.114	–	0.521	0.584	0.501	0.162
NCI-H1734	0.776	0.923	0.701	0.602	0.369	0.505	0.451	0.377	0.222	0.148	0.485	0.449	0.325	0.21	0.151	0.647	0.643	0.541	0.497	0.271
NCI-H1755	0.958	0.974	0.919	0.883	0.869	0.782	0.79	0.833	0.639	0.599	0.41	0.495	0.36	0.353	0.311	0.846	0.839	0.931	0.716	0.595

From the supplement of paper PMC10307832
